Measurements reported in US20070049514A1, “Resonance modulator for diagnosis and therapy” (priority 2003, published 2007).
Read-outs that look alike come from different tables or passages of the source.

How the values were obtained:
[1] = system: malignant squamous cell cancer (SCCA-HM); experiment: BDP-DNP on squamous cell cancer with T-lymphocytes in tissue culture; format: cell-based
Description: FIG. 15 describes the impact of BDP-DNP on cell growth for malignant squamous cell cancer (SCCA-HM) growing in culture (pre-post Rx). On the left are large lacey star shaped squamous 15 cancer cells associated with small white clumps of naïve T-lymphocytes. […] The dark background seen on the right is due to the color of the drug. All the fluffy white cells are large clumps of activated lymphocytes.

PTP CD45 receptor = target: T1, PTP CD45 receptor (Homo sapiens, UniProt P08575); experiment: Binding to and up-regulation of PTP CD45 receptor
T1 sequence (P08575 26-1306): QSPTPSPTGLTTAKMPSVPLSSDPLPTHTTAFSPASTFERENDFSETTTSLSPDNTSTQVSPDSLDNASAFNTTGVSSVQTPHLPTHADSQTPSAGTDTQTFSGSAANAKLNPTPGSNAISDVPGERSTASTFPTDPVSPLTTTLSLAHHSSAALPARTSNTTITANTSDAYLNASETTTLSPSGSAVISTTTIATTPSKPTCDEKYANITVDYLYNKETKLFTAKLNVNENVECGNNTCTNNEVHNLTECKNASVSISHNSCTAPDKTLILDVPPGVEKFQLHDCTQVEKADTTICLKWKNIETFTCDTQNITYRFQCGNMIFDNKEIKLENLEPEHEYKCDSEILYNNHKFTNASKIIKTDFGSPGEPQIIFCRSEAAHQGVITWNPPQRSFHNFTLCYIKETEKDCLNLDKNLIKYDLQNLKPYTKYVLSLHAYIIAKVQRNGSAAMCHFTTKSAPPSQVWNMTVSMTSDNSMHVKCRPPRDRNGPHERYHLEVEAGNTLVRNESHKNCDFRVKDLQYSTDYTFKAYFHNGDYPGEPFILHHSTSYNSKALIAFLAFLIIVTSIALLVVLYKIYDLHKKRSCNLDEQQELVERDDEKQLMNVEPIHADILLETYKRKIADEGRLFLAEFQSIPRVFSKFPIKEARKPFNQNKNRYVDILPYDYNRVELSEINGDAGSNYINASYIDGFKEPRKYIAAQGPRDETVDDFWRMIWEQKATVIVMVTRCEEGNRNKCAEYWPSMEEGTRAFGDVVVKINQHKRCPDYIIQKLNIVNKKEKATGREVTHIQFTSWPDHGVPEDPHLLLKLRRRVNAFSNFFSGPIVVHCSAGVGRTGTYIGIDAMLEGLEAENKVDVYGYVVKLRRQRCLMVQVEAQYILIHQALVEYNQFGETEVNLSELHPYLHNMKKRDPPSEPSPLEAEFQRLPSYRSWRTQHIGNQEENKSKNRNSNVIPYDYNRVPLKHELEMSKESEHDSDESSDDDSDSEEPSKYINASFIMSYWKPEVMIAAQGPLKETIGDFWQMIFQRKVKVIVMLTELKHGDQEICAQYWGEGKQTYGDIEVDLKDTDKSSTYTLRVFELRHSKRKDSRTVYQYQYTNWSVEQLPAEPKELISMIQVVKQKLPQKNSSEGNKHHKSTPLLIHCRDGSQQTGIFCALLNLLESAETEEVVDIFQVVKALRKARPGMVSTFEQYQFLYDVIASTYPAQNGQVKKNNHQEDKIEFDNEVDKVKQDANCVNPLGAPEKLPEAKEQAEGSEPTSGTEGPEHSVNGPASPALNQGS

lymphocytes in culture [2] = experiment: Lymphocyte blastogenesis, blasts per high powered field; format: cell-based; conditions: number of blasts per high powered field
Procedure: (§1) Once candidates have been selected as potential resonance modulators, they can be easily assayed to determine whether they induce lymphocyte blastogenesis and activate lymphocytes. Such an assay is found in Morgan et al., Anticancer Research 13:1763-1768 (1993), which is incorporated by reference. See also Janossy et al., Clin. Exp. Immunol. 14:581-596 (1973). Briefly, uptake of [^3]thymidine was measured for lymphocytes in culture. Lymphocytes were cultured in RPMI-1640 tissue culture medium supplemented with 10% fetal bovine serum (FBS). Following stimulation with the resonance modulator, tritiated thymidine (2-20 μCi/ml, specific activity 2 Ci/mmol) was added to the cells and incubated with them. The uptake of [^3]thymidine was stopped by the addition of cold 10% trichloroacetic acid after a selected period of time, and the radioactivity of the samples measured in a scintillation counter. The % lymphoblast was determined by counting the number of blasts per high powered field (hpf) while % activation was determined by uptake of the tritiated thymidine. The increase voltage was measured with an oscilloscope as in Example 7.

lymphocytes in culture [3] = experiment: Lymphocyte activation, tritiated thymidine uptake; format: cell-based; conditions: uptake of tritiated thymidine
Procedure: as §1

[4] = 0.4 mcg/mL, 24 hours incubation

With O=[N+]([O-])c1ccc(NN=C2C(=Cc3ccccc3)CCCC2=Cc2ccccc2)c([N+](=O)[O-])c1 [Compound 38, 2,6-Dibenzylidenecyclohexanone-2,4-dinitrophenylhydrazone] the “cancer cells after treatment” value [1, 4] was “No cancer cells are detected”, the “effect on naïve T-lymphocytes in the culture” value [1, 4] was “impressive stimulation” and the “immune modulating anticancer activities vs. A-007” value ([1]; relative to A-007) was 100 fold. The “binding affinities to PTP CD45 receptor” value (PTP CD45 receptor) was “improved binding affinities”, the “effect on PTP CD45 receptor” value (PTP CD45 receptor) was “upregulates the receptor” and the “binding affinities to PTP CD45 receptor” value (PTP CD45 receptor; listed as structure 38) was “excellent binding affinities”. The “% Lymphoblast” value (lymphocytes in culture [2]) was 100% and the “% Activation” value (lymphocytes in culture [3]) was 100%.
In the case of O=C1c2ccccc2C(=NNc2ccc([N+](=O)[O-])cc2[N+](=O)[O-])c2ccc(O)c(O)c21 [DNPA, 10-[(2,4-dinitrophenyl)hydrazono]-1,2-dihydroxy-10H-anthracen-9-one], the “% Lymphoblast” value (lymphocytes in culture [2]) was 50% and the “% Activation” value (lymphocytes in culture [3]) was 75%.
In the case of CC(C)C(=O)Nc1ccc([N+](=O)[O-])c(C(F)(F)F)c1 [Fludamide, reference compound], the “% Lymphoblast” value (lymphocytes in culture [2]) was 0% and the “% Activation” value (lymphocytes in culture [3]) was 0%.
